# Patent US20080249075A1, “C11 Modified Retrosteroids as Progesterone Receptor Modulator Compounds” (Solvay Pharmaceuticals GmbH, priority 2007, published 2008)
# Test system: T47D human breast carcinoma cells
# Assay: cells
# Type: cell-based
# Settings: for PS [100 nM] (% stimulation): agonistic mode, alkaline phosphatase induction (100% = 1 nM Dydrogesterone); for PS [100 nM] (% stimulation) / PI [100 nM] (% inhibition): compound 100 nM; for PI [100 nM] (% inhibition): antagonistic mode, inhibition of alkaline phosphatase induction by 1 nM Dydrogesterone; for activation at 0.1 µM / inhibition at 0.1 µM / IC50: Homo sapiens, T47D; for activation at 0.1 µM: 48 h, read-out: PS [100 nM] (% stimulation); for inhibition at 0.1 µM: read-out: PI [100 nM] (% inhibition); for pIC50: antagonistic potency against 1 nM Dydrogesterone; for IC50: read-out: pIC50 (converted)
# Description: The progesterone-dependent modulation of alkaline phosphatase expression was examined using T47D human breast carcinoma cells [Keydar et al., 1979]. The assay was performed as previously described by Di Lorenzo et al. (1991) with the modification of using Dydrogesterone as comparative progestin to determine the antagonistic and agonistic activity.
# The cell line was purchased from CLS Cell Lines Service (Hildastrasse 21, D-69214 Eppelheim, Germany). In brief, the cells were plated in 96-well plates at 40,000 cells/well using the following growth medium: RPMI 1640 with: 10% FBS, 1 mM Sodium Pyruvat MEM, 10 mM Hepes, 0.01 mg/ml Bovine insulin, and 25 μg/ml Gentamycin. After 24 h of cultivation, the growth medium was replaced with medium containing 2% fetal bovine serum and the test compounds were added to each well to achieve the appropriate compound concentration: For determination of agonistic activity only the test compounds were added; for measurement of antagonistic activity the test compounds and additionally Dydrogesterone as standard progesterone agonist was added to a final concentration of 1 nM. After 48 h of cultivation, the medium was removed and the cells were washed with 200 μl of Dulbecco's phosphate-buffered saline without calcium and magnesium (PBS(−)). Then the cells were fixed with 3.7% formaldehyde in phosphate-buffered saline for 15 min at 22° C. After washing the cells with PBS, 100 μl of a […] (pNPP) solution (pNPP Liquid Substrate System; Sigma) was added to each well and incubated for 2 h at room temperature protected from light. The reaction was stopped with 100 μl 1N NaOH and the absorbance was measured with a spectrophotometer (Victor, Perkin Elmer) at 405 nm. The results are expressed as alkaline phosphatase induction (as 100% with 1 nM Dydrogesterone) or inhibition (against alkaline phosphatase induction by 1 nM Dydrogesterone) at a certain concentration of test compound.
# % stimulation=(effect compound−basal)/(effect dydro 1 nM−basal)*100% inhibition of 1 nM Dydro=100*{1-[(effect compound−basal)/(effect dydro 1 nM−basal)]}
# For each compound the % inhibition (PI) and % stimulation (PS), respectively, at a compound concentration of 100 nM was determined. For selected compounds, the corresponding values were measured for several different concentrations, and subsequently were plotted against the concentration of the test compound, and used to calculate the IC50 value (for the antagonistic potency; the IC50 value is the concentration (nM), required to reduce the maximal response by 50%) and EC50 values (for the agonistic potency; the EC50 value is the effective concentration (nM) that produced 50% of the maximum response), respectively.
Compound,PS [100 nM] (% stimulation) (T47D cells) [%],PI [100 nM] (% inhibition) (T47D cells) [%],activation at 0.1 µM [%],inhibition at 0.1 µM [%],pIC50 (T47D cells),"pEC50 (agonistic potency, T47D cells)",IC50 [nM]
"CC(=O)[C@H]1CC[C@H]2[C@@H]3C=CC4=CC(=O)CC[C@@]4(C)[C@@H]3C(OC(=O)Nc3ccc4cc[nH]c4c3)C[C@]12C (stereo partly shown) [compound 88, (1H-Indol-6-yl)-carbamic aciddydrogesterone-11-yl ester]",0.0,48.0,–,–,–,–,–
"COc1ccc(NC(=O)O[C@H]2C[C@]3(C)[C@@H](C(C)=O)CC[C@H]3[C@@H]3C=CC4=CC(=O)CC[C@@]4(C)[C@@H]32)cc1 [Compound No. 11, (4-Methoxy-phenyl)-carbamic acid dydrogesterone-11β-yl ester]",–,–,0,39,–,–,–
"CC(=O)[C@H]1CC[C@H]2[C@@H]3C=CC4=CC(=O)CC[C@@]4(C)[C@@H]3C(OC(=O)Nc3cccc(-n4cccc4)c3)C[C@]12C (stereo partly shown) [compound 103, (3-Pyrrol-1-yl-phenyl)-carbamicacid dydrogesterone-11-yl ester]",21.0,52.0,–,–,7.2,–,–
"CC(=O)[C@H]1CC[C@H]2[C@@H]3C=CC4=CC(=O)CC[C@]4(C)[C@H]3C(OC(=O)Nc3ccc4ncccc4c3)C[C@]12C (stereo partly shown) [compound 69, Quinolin-6-yl-carbamic aciddydrogesterone-11-yl ester]",4.0,41.0,–,–,7.2,–,–
"CC(=O)[C@H]1CC[C@H]2[C@@H]3C=CC4=CC(=O)CC[C@@]4(C)[C@@H]3C(OC(=O)Nc3cccc(OC(F)(F)F)c3)C[C@]12C (stereo partly shown) [compound 74, (3-Trifluoromethoxy-phenyl)-carbamic acid dydrogesterone-11-yl ester]",89.0,−23.0,–,–,–,6.3,–
"CC(=O)[C@H]1CC[C@H]2[C@@H]3C=CC4=CC(=O)CC[C@@]4(C)[C@@H]3C(OC(=O)Nc3cccc(N4CCCC4=O)c3)C[C@]12C (stereo partly shown) [compound 100, [3-(2-Oxo-pyrrolidin-1-yl)-phenyl]-carbamic aciddydrogesterone-11-yl ester]",1.0,45.0,–,–,6.6,–,–
"CCO[C@]1(C(C)=O)CC[C@H]2[C@@H]3C=CC4=CC(=O)CC[C@@]4(C)[C@@H]3[C@@H](OC(=O)Nc3cccc(OC)c3)C[C@@]21C [Compound No. 12, (3-Methoxy-phenyl)-carbamic acid 17-ethoxy-dydrogesterone-11β-yl ester]",–,–,23,72,–,–,6.31
"CC(=O)[C@H]1CC[C@H]2[C@@H]3C=CC4=CC(=O)CC[C@@]4(C)[C@@H]3C(OC(=O)Nc3ccc(C)c(Br)c3)C[C@]12C (stereo partly shown) [compound 76, (3-Bromo-4-methyl-phenyl)-carbamic acid dydrogesterone-11-yl ester]",4.0,67.0,–,–,7.3,–,–
"CC(=O)[C@H]1CC[C@H]2[C@@H]3C=CC4=CC(=O)CC[C@@]4(C)[C@@H]3[C@@H](OC(=O)Nc3cccc(C(N)=O)c3)C[C@]12C [Compound No. 14, (3-Carbamoyl-phenyl)-carbamic acid dydrogesterone-11β-yl ester]",–,–,-1,38,–,–,50.1
"CC(=O)[C@H]1CC[C@H]2[C@@H]3C=CC4=CC(=O)CC[C@@]4(C)[C@@H]3C(OC(=O)Nc3ccc4c(c3)OCCO4)C[C@]12C (stereo partly shown) [compound 70, (2,3-Dihydro-benzo[1,4]dioxin-6-yl)-carbamic aciddydrogesterone-11-yl ester]",1.0,44.0,–,–,6.9,–,–
"CC(=O)Nc1cccc(NC(=O)OC2C[C@]3(C)[C@@H](C(C)=O)CC[C@H]3[C@@H]3C=CC4=CC(=O)CC[C@@]4(C)[C@H]23)c1 (stereo partly shown) [compound 95, (3-Acetylamino-phenyl)-carbamicacid dydrogesterone-11-yl ester]",1.0,50.0,–,–,6.8,–,–
